# Laboratory results taken from patent US7476753B2, “3-aryl-2-cyano-3-hydroxy-acrylic acid derivatives” (Ciba Specialty Chemicals Corporation, priority 2003, dated 2009).
# Where two headings read alike, the source gives them in different places.
# Experiments:
# [1] = test system: A. actinomycetemcomitans ATCC43718; assay: MIC vs. oral germs, broth dilution method; format: cell-based, Actinobacillus actinomycetemcomitans; details: for MIC: Aggregatibacter actinomycetemcomitans, read-out: MHK (MIC) A. actinomycetemcomitans ATCC43718
# Excerpt: (§1) b) Determination of MIC vs. different oral germs in the broth dilution method • Medium: Thioglycolate Bouillon with Hemin and Menadion Columbia Bouillon with Hemin and Menadion für P. gingivalis und P. nigrescens • diluent: the corresponding amount of the substances was pippeted directly • Examples of Test organisms: • Actinobacillus actinomycetemcomitans ATCC43718 • Streptococcus gordonii ATCC10558 • Streptococcus mutans ATCC33402 • Actinomyces viscosus ATCC43146 • Fusobacterium nucleatum subsp. polymorphum ATCC1095 • Porphyromonas gingivalis ATCC3277 • Prevotella nigrescens ATCC33563 • Incubation: 7-10 days at 37° C. under anaerobic conditions, resp. 24 h aerobically with 10% CO2 for Streptococci und A. actinomycetemcomitans • Test solution: Stock solutions in ethanol with 1500 ppm (w/w) are used from all test substances
# (§2) Bacteria are taken from blood agar plates with cotton swabs and a suitable O.D. is adjusted in the corresponding medium (McFarland 0.5). This solution is used for F. nucleatum and P. nigrescens in undiluted state, for the other strains a dilution of 1:20 is used. To each 2 ml of active ingredient containing solution 0.1 ml of the bacteria culture is added and incubated as described above.
# S. gordonii ATCC10558 = assay: MIC vs. oral germs, broth dilution method; format: cell-based, Streptococcus gordonii; details: for MIC: Streptococcus gordonii, read-out: MHK (MIC) S. gordonii ATCC10558
# Excerpt: as §1, §2
# S. mutans ATCC33402 = assay: MIC vs. oral germs, broth dilution method; format: cell-based, Streptococcus mutans; details: for MIC: Streptococcus mutans, read-out: MHK (MIC) S. mutans ATCC33402
# Excerpt: as §1, §2
# A. viscosus ATCC43146 = assay: MIC vs. oral germs, broth dilution method; format: cell-based, Actinomyces viscosus; details: for MIC: Actinomyces viscosus
# Excerpt: as §1, §2
# [2] = test system: F. nucleatum subsp. polymorphum ATCC10953; assay: MIC vs. oral germs, broth dilution method; format: cell-based, Fusobacterium nucleatum subsp. polymorphum; details: for MIC: Fusobacterium nucleatum
# Excerpt: as §1, §2
# P. gingivalis ATCC3277 = assay: MIC vs. oral germs, broth dilution method; format: cell-based, Porphyromonas gingivalis; details: for MIC: Porphyromonas gingivalis
# Excerpt: as §1, §2
# P. nigrescens ATCC33563 = assay: MIC vs. oral germs, broth dilution method; format: cell-based, Prevotella nigrescens; details: for MIC: Prevotella nigrescens
# Excerpt: as §1, §2
# [3] = test system: Corynebacterium xerosis ATCC 373; assay: MIC, Agar incorporation test; format: cell-based
# Method: (§3) 0.3 ml of each dilution step is mixed with 15 ml of nutrient medium while the latter is still liquid. After the nutrient medium has solidified, 10 μl of each of the following organism dilutions of the test strains in 0.85% NaCl solution are spotted onto the agar medium.
# (§4) The plates are incubated during 24 hours at 37° C. and then the highest dilution (lowest concentration) of the test substance at which growth is just no longer discernible (corresponds to the MIC) is determined.
# [4] = test system: Escherischia coli ATCC 10536; assay: MIC, Agar incorporation test; format: cell-based; details: 24 hours at 37° C.
# Method: as §3, §4
# [5] = test system: Propionibacterium acnes ATCC 6919; assay: MIC, Agar incorporation test; format: cell-based
# Method: as §3, §4
# [6] = test system: Pseudomonas aeruginosa ATCC 15442; assay: MIC, Agar incorporation test; format: cell-based
# Method: as §3, §4
# [7] = test system: Staphylococcus aureus ATCC 6538; assay: MIC, Agar incorporation test; format: cell-based
# Method: as §3, §4
# [8] = test system: Staphylococcus epidermidis ATCC 12228; assay: MIC, Agar incorporation test; format: cell-based
# Method: as §3, §4
# [9] = test system: Candida albicans ATCC 10231; assay: MIC, Agar incorporation test; format: cell-based; details: Sabouraud 4% glucose agar, 3 days at 28° C.
# Method: 0.3 ml of each dilution step is mixed with 15 ml of nutrient medium while the latter is still liquid. After the nutrient medium has solidified, 10 μl of each of the following organism dilutions of the test strains in 0.85% NaCl solution are spotted onto the agar medium. […]
# [10] = test system: Actinomyces viscosus ATCC 43146; assay: Automatic MIC-Screening, broth dilution method; format: cell-based; details: micro titer plates, 37° C., 24 hours, tested 120 to 3.75 μg/ml
# Method: (§5) Determination of the Minimum Inhibitory Concentration (MIC Value)
# (§6) 8 μl of each dilution step is mixed with 192 μl of nutrient medium in micro titer plates. The plates are incubated at 37° C. for 24 hours and then the highest dilution (lowest concentration) of the test substance at which growth is just no longer discernible is determined (corresponds to the MIC).
# [11] = test system: Corynebacterium sp. (Corynebacterium xerosis ATCC 373 oder C. minutissimum ATCC 23348); assay: Automatic MIC-Screening, broth dilution method; format: cell-based; details: micro titer plates, 37° C., 24 hours, tested 120 to 3.75 μg/ml
# Method: as §5, §6
# [12] = test system: Staphylococcus aureus ATCC 6538; assay: Automatic MIC-Screening, broth dilution method; format: cell-based; details: micro titer plates, 37° C., 24 hours, tested 120 to 3.75 μg/ml
# Method: as §5, §6
# [13] = test system: Aspergillus niger ATCC 6275; assay: MIC, Agar incorporation test; format: cell-based
# Method: as §3, §4
# [14] = test system: C. minutissimum ATCC 23348; assay: MIC, Agar incorporation test; format: cell-based; details: 24 hours at 37° C.
# Method: as §3, §4
# [15] = test system: Klebsiella pneumoniae ATCC 4352; assay: MIC, Agar incorporation test; format: cell-based; details: 24 hours at 37° C.
# Method: as §3, §4
# [16] = test system: Proteus vulgaris ATCC 6896; assay: MIC, Agar incorporation test; format: cell-based; details: 24 hours at 37° C.
# Method: as §3, §4
# [17] = test system: Salmonella choleraesuis ATCC 9184; assay: MIC, Agar incorporation test; format: cell-based; details: 24 hours at 37° C.
# [18] = broth dilution, 24 h aerobically with 10% CO2, 37° C.
# [19] = broth dilution, 7-10 days at 37° C., anaerobic
# [20] = broth dilution, Columbia Bouillon with Hemin and Menadion, 7-10 days at 37° C., anaerobic
compound,measurement,setting,value
"CCCCC(CC)COC(=O)C(C#N)=C(O)c1ccc(-c2ccccc2)cc1 (stereo not shown) [(101e), 3-biphenyl-4-yl-2-cyano-3-hydroxy-acrylic acid 2-ethyl-hexylester]",MIC,"[1]; ATCC43718, 24 h",> 15 µg/mL
same,MIC,"S. gordonii ATCC10558; ATCC10558, 24 h",< 0.94 µg/mL
same,MIC,"S. mutans ATCC33402; ATCC33402, 24 h",< 0.94 µg/mL
same,MIC,"A. viscosus ATCC43146; ATCC43146, read-out: MHK (MIC) A. viscosus ATCC43146",< 0.94 µg/mL
same,MIC,"[2]; ATCC10953, read-out: MHK (MIC) F. nucleatum subsp. polymorphum ATCC10953",> 15 µg/mL
same,MIC,"P. gingivalis ATCC3277; ATCC3277, read-out: MHK (MIC) P. gingivalis ATCC3277",15 µg/mL
same,MIC,"P. nigrescens ATCC33563; ATCC33563, read-out: MHK (MIC) P. nigrescens ATCC33563",> 15 µg/mL
same,MIC,"[3]; Corynebacterium xerosis, ATCC373, 24 hours at 37° C.",1.9 µg/mL
same,MIC,[4],> 500 µg/mL
same,MIC,"[5]; Cutibacterium acnes, ATCC6919, 24 hours at 37° C.",0.94 µg/mL
same,MIC,"[6]; Pseudomonas aeruginosa, ATCC15442, 24 hours at 37° C.",> 500 µg/mL
same,MIC,"[7]; Staphylococcus aureus, ATCC6538, 24 hours at 37° C.",1.9 µg/mL
same,MIC,"[8]; Staphylococcus epidermidis, ATCC12228, 24 hours at 37° C.",1.9 µg/mL
same,MIC,"[9]; Candida albicans, ATCC10231, 72 h",> 500 µg/mL
CCCCCCCCOC(=O)/C(C#N)=C(\O)c1ccc(-c2ccc(/C(O)=C(\C#N)C(=O)OCCCCCCCC)cc2)cc1 [(102a)],MIK (MIC) A. viscosus,[10],<3.75 μγ/ml
same,MIK (MIC) Corynebacterium sp.,[11],>120 μγ/ml
same,MIK (MIC) S. aureus,[12],<3.75 μγ/ml
same,MIC,"[1]; ATCC43718, broth dilution, 24 h aerobically with 10% CO2, 37° C.",> 15 µg/mL
same,MIC,"S. gordonii ATCC10558; ATCC10558, broth dilution, 24 h aerobically with 10% CO2, 37° C.",15 µg/mL
same,MIC,"S. mutans ATCC33402; ATCC33402, broth dilution, 24 h aerobically with 10% CO2, 37° C.",> 15 µg/mL
same,MIC,"A. viscosus ATCC43146; ATCC43146, broth dilution, 7-10 days at 37° C., anaerobic, read-out: MHK (MIC) A. viscosus ATCC43146",7.5 µg/mL
same,MIC,"[2]; ATCC10953, broth dilution, 7-10 days at 37° C., anaerobic, read-out: MHK (MIC) F. nucleatum subsp. polymorphum ATCC10953",≥ 15 µg/mL
same,MIC,"P. gingivalis ATCC3277; ATCC3277, broth dilution, Columbia Bouillon with Hemin and Menadion, 7-10 days at 37° C., anaerobic, read-out: MHK (MIC) P. gingivalis ATCC3277",> 15 µg/mL
same,MIC,"P. nigrescens ATCC33563; ATCC33563, broth dilution, Columbia Bouillon with Hemin and Menadion, 7-10 days at 37° C., anaerobic, read-out: MHK (MIC) P. nigrescens ATCC33563",> 15 µg/mL
CCCCC(CC)COC(=O)C(C#N)=C(O)c1ccc(-c2ccc(C(O)=C(C#N)C(=O)OCC(CC)CCCC)cc2)cc1 (stereo not shown) [(102b)],MHK (MIC) A. actinomycetemcomitans ATCC43718,[1]; [18],>15 ppm
same,MHK (MIC) S. gordonii ATCC10558,S. gordonii ATCC10558; [18],15 ppm
same,MHK (MIC) S. mutans ATCC33402,S. mutans ATCC33402; [18],>15 ppm
same,MHK (MIC) A. viscosus ATCC43146,A. viscosus ATCC43146; [19],7.5 ppm
same,MHK (MIC) F. nucleatum subsp. polymorphum ATCC10953,[2]; [19],>15 ppm
same,MHK (MIC) P. gingivalis ATCC3277,P. gingivalis ATCC3277; [20],>15 ppm
same,MHK (MIC) P. nigrescens ATCC33563,P. nigrescens ATCC33563; [20],>15 ppm
same,MIC Aspergillus niger ATCC 6275,[13],>400 ppm
same,MIC C. minutissimum ATCC 23348,[14],50 ppm
same,MIC Corynebacterium xerosis ATCC 373,[3]; 24 hours at 37° C.,<1.56 ppm
same,MIC Escherischia coli ATCC 10536,[4],>400 ppm
same,MIC Klebsiella pneumoniae ATCC 4352,[15],>400 ppm
same,MIC Propionibacterium acnes ATCC 6919,[5]; 24 hours at 37° C.,<1.56 ppm
same,MIC Proteus vulgaris ATCC 6896,[16],>400 ppm
same,MIC Pseudomonas aeruginosa ATCC 15442,[6]; 24 hours at 37° C.,>400 ppm
same,MIC Staphylococcus aureus ATCC 6538,[7]; 24 hours at 37° C.,100 ppm
same,MIC Staphylococcus epidermidis ATCC 12228,[8]; 24 hours at 37° C.,25 ppm
same,MIC Salmonella choleraesuis ATCC 9184,[17],>400 ppm
same,MIC Candida albicans ATCC 10231,[9],>400 ppm
